{"source": "patent US20040176289A1", "about": "“Pharmaceutical composition for prevention and treatment of joint arthritis and a screening method thereof” (priority 2001, published 2004)", "key": {"[1]": {"system": "P0 and P2 chondrocytes", "assay": "Immunostaining of type-II collagen in P0 and P2 chondrocytes", "format": "cell-based, rabbit", "settings": "20 μM, two days, immunofluorescence", "description": "In order to examine the suppression of de-differentiation by the inhibition of ERK activity, the expression of collagen was observed by immunostaining. Particularly, 20 μM of ERK activity inhibitor 2-(2-amino-3-methoxyphenol)-4H-1-benzopyran-4-one (PD98059) was added into P0 and P2 chondrocytes, and the cells were then cultured for two days. The cultured cells were fixed with 3% parpformaldehyde for ten minutes and some parts of the cell membranes were disrupted by 0.2% X-100. Next, anti-type II collagen antibody (10 μg/ml) was added thereto and continued to culture thereof for one hour."}, "[2]": {"system": "rabbit articular chondrocytes", "assay": "De-differentiation of articular chondrocytes in serial monolayer culture (type-II collagen, proteoglycan synthesis)", "format": "cell-based", "settings": "two days; for expression of type-II collagen: 20 μM", "description": "In order to confirm the de-differentiation and degeneration of chondrocytes, the present inventors have performed consecutively monolayer culture with articular chondrocytes of a two- to four-week-old rabbit (FIG. 1B). Particularly, articular cartilage of the rabbit was thin-sectioned aseptically, and the articular fragments were then reacted in PBS containing 0.2% collagenase type-II (Sigma) for six hours. Through quick-centrifugation, single cells were obtained. The single cells were suspended in DMEM (Dulbecco 's modified Eagle's medium, Gibco BRL, Gaithersburg, Md., USA) containing 10% FBS, 50 μg/ml streptomycin, and 50 units/ml penicillin and were plated onto a culture-dish at a density of 5×10^4 cells/cm^2 and cultured at 37° C. The medium was changed every other day. Five days later, the culture dish was filled with grown-up cells, which were identified as P0. Those cells were subcultured at the concentration of 5×10^4 cells/cm^2 per culture dish. The cells were continuously subcultured whenever they were fully grown to fill the dishes and were identified as P1 and next P2. Subculture was finished when P6 phase was completed. […] It was also confirmed by alcian blue staining that the accumulation of glycosaminoglycan sulfide was decreased as the subculture was continued. The de-differentiation and degeneration of chondrocytes were also disclosed by observing the shape of chondrocytes, which was changed from their distinguished round shape to fibroblast shape, a characteristic of degenerated chondrocytes (FIG. 2B).\nIn order to ascertain the effect of ERK activity on the de-differentiation of chondrocytes, rabbit articular cartilage cells were cultured at the density of 5×10^4 cells/cm^2 on a culture dish. The cells began to proliferate on the second day of culture and reached saturation on the fifth day. The cells in saturation point were designated as P0. The cells in P0 stage had typical round or polygonal shapes, but these forms changed into flat and fibroblast-like shapes while the cells were going through P6 stage by serial monolayer culture (FIG. 2B). The expression of type-II collagen was analyzed by Western and Northern blotting, resulting in the highest expression in, P0, beginning to decrease in P1 and almost no expression after P3 (FIG. 4A). […] Therefore, it was confirmed that the ERK activity was in inverse proportion to the expression of type-II collagen, which means the ERK activity plays an important role in the de-differentiation process.\nTo determine the relations between ERK activity and de-differentiation, the cells under subculturing were treated with 2-(2-amino-3-methoxyphenol)-4H-1-benzopyran-4-one (PD98059), an ERK activity inhibitor, and the synthesis of collagen and proteoglycan was observed. […]"}, "[3]": {"system": "ERK", "assay": "ERK activity in SNP treated chondrocytes", "format": "cell-based", "description": "(§1) In order to investigate the effect of ERK activity on the de-differentiation of chondrocytes induced by NO production, the change of ERK activity in SNP treated chondrocytes was detected. […] In order to increase the ERK activity by SNP, at least 0. […] The ERK activity inhibitor also restrained the inhibition of type-II collagen expression by SNP (FIG. 8C), and it blocked the decrease of proteoglycan synthesis induced by SNP (FIG. 8D).\n(§2) For the activation of ERK, phosphorylation by MEK, the upstream signal transduction molecule of ERK, is required."}, "[4]": {"system": "chondrocytes", "assay": "NO (SNP) induced de-differentiation of chondrocytes (type-II collagen, proteoglycan)", "format": "cell-based", "description": "as §1"}, "[5]": {"system": "ERK", "assay": "ERK activity in serially monolayer-cultured articular chondrocytes", "format": "cell-based, rabbit", "settings": "20 μM, chondrocytes of each passage, two additional days", "description": "In order to confirm the de-differentiation and degeneration of chondrocytes, the present inventors have performed consecutively monolayer culture with articular chondrocytes of a two- to four-week-old rabbit (FIG. 1B). Particularly, articular cartilage of the rabbit was thin-sectioned aseptically, and the articular fragments were then reacted in PBS containing 0.2% collagenase type-II (Sigma) for six hours. Through quick-centrifugation, single cells were obtained. The single cells were suspended in DMEM (Dulbecco 's modified Eagle's medium, Gibco BRL, Gaithersburg, Md., USA) containing 10% FBS, 50 μg/ml streptomycin, and 50 units/ml penicillin and were plated onto a culture-dish at a density of 5×10^4 cells/cm^2 and cultured at 37° C. The medium was changed every other day. Five days later, the culture dish was filled with grown-up cells, which were identified as P0. Those cells were subcultured at the concentration of 5×10^4 cells/cm^2 per culture dish. […]\nIn order to ascertain the effect of ERK activity on the de-differentiation of chondrocytes, rabbit articular cartilage cells were cultured at the density of 5×10^4 cells/cm^2 on a culture dish. […] The expression of type-II collagen was analyzed by Western and Northern blotting, resulting in the highest expression in, P0, beginning to decrease in P1 and almost no expression after P3 (FIG. 4A). […]"}, "[6]": {"system": "ERK", "assay": "ERK activity (Western blot, phosphorylated ERK-specific antibody) in micromass-cultured mesenchymal cells", "format": "cell-based, chicken", "settings": "mesenchymal cells treated with PD98059, micromass culture", "description": "(§3) The present inventors have observed the differentiation process of chondrocytes using limb bud mesenchymal cells of Hamburger-Hamilton stage 24-25 chicken embryo under micromass culture (FIG. 1A). Particularly, mesenchymal cells were suspended in Ham's F-12 medium (Gibco BRL, Gaithersburg, Md., USA) supplemented with 10% fetal bovine serum (2×10^7 cells/ ml). The cell suspension was loaded onto culture dish (15 μl/spot) and cultured at 37° C. for two hours in order to fix the cells on the dish. The cells were further cultured in the Ham's F-12 medium containing 10% FBS, 50 μg/ml streptomycin, and 50 units/ml penicillin.\nThe present inventors have confirmed the effect of ERK activity inhibition on the differentiation of chondrocytes. Particularly, the present inventors have investigated how the differentiation was influenced by the change and the inhibition of ERK activity during the differentiation process of chondrocytes induced by micromass culture of mesenchimal cells (FIG. 2A and Example 1-1). […] Therefore, it was confirmed that the decrease of ERK activity was required for the differentiation from mesenchimal cells to chondrocytes; that is, the differentiation of chondrocytes was stimulated by the inhibition of ERK activity.\nas §2"}, "[7]": {"system": "MMP-9", "assay": "MMP-9 activity/expression by gelatin zymography in IL-1β treated articular cartilage cells", "format": "cell-based", "description": "Particularly, articular cartilage cells were treated with 10 ng/ml of IL-1β according to the different times (0 minutes, ten minutes, thirty minutes, one hour, two hours, four hours, six hours, twelve hours, and 24 hours) and concentrations (0 ng/ml, 0.01 ng/ml , 0.1 ng/ml, 1 ng/ml, and 10 ng/ml), and culture supernatant was then obtained, followed by electrophoresis on the gel containing 2% gelatin. The separated gel was cultured at 37° C. for twelve hours, by which the decomposition of gelatin was induced by MMP-9. The remaining gelatin was stained for the confirmation of gelatin decomposition by MMP, based on which the MMP-9 activity was measured."}, "[8]": {"system": "limb bud mesenchymal cells of chicken embryo", "assay": "Differentiation of mesenchymal cells to chondrocytes (alcian blue staining, type-II collagen Western blot)", "format": "cell-based", "description": "as §3\nAs a result, when mesenchymal cells were micromass cultured for five days, the synthesis of type-II collagen, a characteristic of chondrocytes, began to take place from the third day of culturing, which was confirmed by Western blotting using an antibody implying that the differentiation of chondrocytes was progressed. The accumulation of sulfated proteoglycan was also confirmed through alcian blue staining to be increased, which also implied that the differentiation of chondrocytes began from the third day of culturing and completed on the fifth day (FIG. 2A).\nThe present inventors have confirmed the effect of ERK activity inhibition on the differentiation of chondrocytes. […]"}, "[9]": {"system": "chondrocytes", "assay": "IL-1β induced NO production in chondrocytes (nitrite)", "format": "cell-based", "description": "Particularly, the amount of NO was determined by measuring the concentration of nitrite, a reaction product of NO, secreted after treating chondrocytes with IL1-β for 24 hours."}, "[10]": {"system": "COX-2", "assay": "COX-2 expression in IL-1β treated chondrocytes (Western blotting)", "format": "cell-based", "description": "The present inventors have further investigated the relation between the inhibition of ERK activity and the expression of COX-2. Particularly, the inventors have confirmed with Western blotting the quantity of cox-2 protein expressed in chondrocytes after treating the cells with different concentrations of IL-1β for 24 hours."}, "[11]": {"system": "SPF SD line rats", "assay": "Acute toxicity test in rat via non-oral administration", "format": "in vivo", "description": "Six-week old SPF SD line rats were used in the tests for acute toxicity. 2-(2-amino-3-methoxyphenol)-4H-1-benzopyran-4-one (PD98059) of the present invention was suspended in 0.5% methyl cellulose solution and intravenous injected once into two rats per group at dosages of 50, 30, and 10 mg/kg/15 ml. Death, clinical symptoms, and weight change in the rats were observed, hematological tests and biochemical tests of blood were performed, and abnormal signs in the gastrointestinal organs of chest and abdomen were observed visually during autopsy."}, "[12]": {"system": "chondrocytes", "assay": "NO production in chondrocytes treated with SNP", "format": "cell-based", "description": "In order to investigate the effect of NO produced in chondrocytes on the de-differentiation of chondrocytes, the present inventors treated the cells with […] (SNP), a NO donor, to induce No production."}, "[13]": {"system": "ERK", "assay": "ERK activity in IL-1β treated chondrocytes", "format": "cell-based", "settings": "chondrocytes treated with IL-1β"}, "[14]": {"settings": "single intravenous injection, 50, 30 and 10 mg/kg/15 ml"}}, "note": "“Also recorded” adds a separate entry of the source.", "data": [{"molecule": "COc1cccc(-c2cc(=O)c3ccccc3o2)c1N", "note": "[PD98059, 2-(2-amino-3-methoxyphenol)-4H-1-benzopyran-4-one]", "values": [{"measurement": "numbers of type-II collagen expressed cells", "setting": "[1]; P0 cells", "result": "remarkably increased"}, {"measurement": "numbers of type-II collagen expressed cells", "setting": "[1]; P2 cells", "result": "greatly increased"}, {"measurement": "increase of synthesis of proteoglycan by a factor (alcian blue staining)", "setting": "[2]; P0, 20 μM", "result": 2.6}, {"measurement": "expression of type-II collagen", "setting": "[2]; P0 cells", "result": "largely increased"}, {"measurement": "increase of synthesis of proteoglycan by a factor (alcian blue staining)", "setting": "[2]; P2, 20 μM", "result": 6.4}, {"measurement": "expression of type-II collagen", "setting": "[2]; P2 cells", "result": "turned to express again"}, {"measurement": "ERK activity", "setting": "[3]; 20 μM PD98059, SNP treated chondrocytes", "result": "totally restrained"}, {"measurement": "decrease of proteoglycan synthesis induced by SNP", "setting": "[4]; PD98059 with SNP", "result": "blocked"}, {"measurement": "inhibition of type-II collagen expression by SNP", "setting": "[4]; PD98059 with SNP", "result": "restrained"}, {"measurement": "ERK activity", "setting": "[5]", "result": "suppressed"}, {"measurement": "activity of ERK", "setting": "[6]", "result": "decreased in a dose-dependent manner"}, {"measurement": "expression of MMP-9", "setting": "[7]; 10 μM PD98059, IL-1β treated chondrocytes", "result": "suppressed"}, {"measurement": "synthesis of proteoglycan (alcian blue staining)", "setting": "[8]; mesenchymal cells treated with PD98059", "result": "remarkably increased; also recorded: largely increased"}, {"measurement": "expression of type-II collagen", "setting": "[8]; mesenchymal cells treated with PD98059, Western blot", "result": "also increased"}, {"measurement": "NO production caused by IL-1β", "setting": "[9]; 5 μM PD98059, IL-1β for 24 hours, nitrite", "result": "completely inhibited"}, {"measurement": "expression of cox-2", "setting": "[10]; 5 μM PD98059, IL-1β for 24 hours", "result": "completely suppressed"}, {"measurement": "level not causing any toxic change", "setting": "[11]; single intravenous injection", "result": "≤ 50", "unit": "mg/kg"}, {"measurement": "clinical symptoms, weight change, death", "setting": "[11]; [14]", "result": "did not cause any specific clinical symptoms, weight change, or death"}, {"measurement": "hematological tests, biochemical tests of blood, autopsy", "setting": "[11]; [14]", "result": "No change was observed"}]}, {"molecule": "CC(=O)N[C@H](C(=O)O)C(C)(C)SN=O", "note": "[SNP, S-nitroso-N-acetyl penicillamine]", "values": [{"measurement": "ERK activity, time course", "setting": "[3]; 1 mM SNP", "result": "began to increase three hours after the treatment and reached the highest activity twelve hours later"}, {"measurement": "SNP concentration required to increase the ERK activity", "setting": "[3]; chondrocytes", "result": "at least 0. 5 mM"}, {"measurement": "expression of type-II collagen", "setting": "[4]; 0.1 mM SNP, 24 hours", "result": "started to decrease"}, {"measurement": "expression of type-II collagen", "setting": "[4]; 1 mM SNP, 12 hours", "result": "began to decrease"}, {"measurement": "expression of type-II collagen", "setting": "[4]; 1 mM SNP, 24 hours", "result": "totally suppressed"}, {"measurement": "synthesis of proteoglycan", "setting": "[4]; SNP treated chondrocytes", "result": "decreased depending on the concentration"}, {"measurement": "NO production", "setting": "[12]", "result": "in proportion to the concentration"}]}, {"molecule": "IL-1β: an inflammatory cytokine", "values": [{"measurement": "ERK activity", "setting": "[13]", "result": "temporarily increased at the early stage"}, {"measurement": "expression of MMP-9", "setting": "[7]; IL-1β 0-10 ng/ml, gelatin zymography", "result": "largely increased depending on the concentration"}, {"measurement": "NO production", "setting": "[9]; chondrocytes treated with IL-1β", "result": "stimulates NO production in a dose-dependent manner"}, {"measurement": "expression of cox-2", "setting": "[10]; different concentrations of IL-1β, 24 hours", "result": "increased depending on the concentration"}]}]}
